Measured values from patent US6538137B1 (Teijin Limited, priority 1999, dated 2003).

Molecular target: human FXa (Homo sapiens, UniProt P00742)
Assay: Determination of inhibitory activity of activated blood coagulation factor X (FXa)
Type: biochemical
Details: substrate S-2765, Tris buffer pH 8.4, incubation 30 minutes, absorbance A405; read-out: FXa inhibitory activity, 50% inhibitory activity (IC50)
Method: A test substance was dissolved in water or water containing organic solvents (DMSO, ethanol or methanol) at a suitable concentration to provide a specimen. To 70 μl each of the resulting specimens serially diluted with water, were added 90 μl of a 100 mM Tris buffer (pH 8.4), 20 μl of a 50 mM Tris buffer (pH 8.4) containing 50 mU/ml human FXa and 2 mM of a substrate (S-2765 manufactured by Daiichi Pure Chemicals Co., Ltd.). Incubation was carried out for 30 minutes. To the incubated mixture, was then added 50 μl of a 50% acetic acid. The absorbance (A405) was determined. A mixture prepared by adding the Tris buffer instead of the FXa was used as a blank, and a mixture containing water instead of the specimen was used as a control. The 50% inhibitory activity (IC50) was determined as the indication of FXa inhibitory activity.

Sequence of human FXa (P00742 235-488 limits assumed): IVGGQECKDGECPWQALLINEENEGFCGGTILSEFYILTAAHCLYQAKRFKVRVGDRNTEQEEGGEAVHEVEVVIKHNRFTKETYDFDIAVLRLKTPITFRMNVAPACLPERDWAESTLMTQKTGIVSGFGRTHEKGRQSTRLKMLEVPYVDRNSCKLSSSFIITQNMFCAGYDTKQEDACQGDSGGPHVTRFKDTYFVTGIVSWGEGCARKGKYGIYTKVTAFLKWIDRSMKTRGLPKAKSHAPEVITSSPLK
Sequence of human FXa (P00742 41-179 partner limits assumed): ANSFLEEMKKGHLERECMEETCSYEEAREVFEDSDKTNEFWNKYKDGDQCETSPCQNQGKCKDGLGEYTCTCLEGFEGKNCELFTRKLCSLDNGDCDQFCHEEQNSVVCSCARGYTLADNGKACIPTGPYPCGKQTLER

| Compound | IC50 |
| --- | --- |
| COC(=O)c1cc(COCC2CCN(C(C)C)CC2)cc(-c2cccc(C(=N)N)c2)c1 [Reference Example 4, methyl 3-(3-amidinophenyl)-5-[(N-isopropyl-4-piperidinyl)methoxymethyl]-5-benzoate] | 100 to 1000 nM |
| CC(C)N1CCC(COCc2cc(C(=O)O)cc(-c3cccc(C(=N)N)c3)c2)CC1 | 100 to 1000 nM |
| COC(=O)c1cc(COCC2CCN(C(C)=O)CC2)cc(-c2cccc(C(=N)N)c2)c1 [Reference Example 5, methyl 3-(3-amidinophenyl)-5-[(N-acetylpiperidin-4-yl)methoxymethyl]-5-benzoate] | 100 to 1000 nM |

The remaining lines, values ahead:

| IC50 | Compound |
| --- | --- |
| 10 to 100 nM | COC(=O)c1cc(CNCC2CCN(C(C)=N)CC2)cc(-c2cccc(C(=N)N)c2)c1 [Reference Example 6, methyl 3-(3-amidinophenyl)-5-[(((N-acetimidoylpiperidin-4-yl)methyl)amino)methyl]benzoate] |
| 100 to 1000 nM | COC(=O)c1cc(COCC2CCNCC2)cc(-c2cccc(C(=N)N)c2)c1 [Reference Example 3, methyl 3-(3-amidinophenyl)-5-[(4-piperidinyl)methoxymethyl]-5-benzoate] |
| 10 to 100 nM | COC(=O)c1cc(COCC2CCN(C(C)=N)CC2)cc(-c2cccc(C(=N)N)c2)c1 [Reference Example 7, methyl 3-(3-amidinophenyl)-5-[(1-acetimidoyl-4-piperidinyl)methoxymethyl]benzoate] |
